{"source": "BindingDB's records for doi:10.1016/S0968-0896(02)00561-8", "about": "(Purdue University, 2003)", "key": {"D(3) dopamine receptor": {"target": "D(3) dopamine receptor (Rattus norvegicus, UniProt P19020)", "sequence (P19020 whole entry)": "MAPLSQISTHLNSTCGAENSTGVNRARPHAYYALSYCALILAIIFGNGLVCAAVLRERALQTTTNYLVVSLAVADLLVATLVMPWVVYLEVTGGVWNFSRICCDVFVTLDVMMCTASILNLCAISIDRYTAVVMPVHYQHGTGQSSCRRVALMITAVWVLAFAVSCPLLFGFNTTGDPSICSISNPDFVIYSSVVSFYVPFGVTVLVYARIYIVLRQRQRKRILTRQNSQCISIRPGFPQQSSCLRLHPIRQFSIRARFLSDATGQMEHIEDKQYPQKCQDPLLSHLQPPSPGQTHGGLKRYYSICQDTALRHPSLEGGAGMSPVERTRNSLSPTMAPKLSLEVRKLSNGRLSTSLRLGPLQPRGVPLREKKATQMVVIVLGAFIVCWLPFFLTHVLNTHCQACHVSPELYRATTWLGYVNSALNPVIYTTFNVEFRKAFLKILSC"}, "D(4) dopamine receptor": {"target": "T1, D(4) dopamine receptor (Rattus norvegicus, UniProt P30729)", "T1 sequence (P30729 whole entry)": "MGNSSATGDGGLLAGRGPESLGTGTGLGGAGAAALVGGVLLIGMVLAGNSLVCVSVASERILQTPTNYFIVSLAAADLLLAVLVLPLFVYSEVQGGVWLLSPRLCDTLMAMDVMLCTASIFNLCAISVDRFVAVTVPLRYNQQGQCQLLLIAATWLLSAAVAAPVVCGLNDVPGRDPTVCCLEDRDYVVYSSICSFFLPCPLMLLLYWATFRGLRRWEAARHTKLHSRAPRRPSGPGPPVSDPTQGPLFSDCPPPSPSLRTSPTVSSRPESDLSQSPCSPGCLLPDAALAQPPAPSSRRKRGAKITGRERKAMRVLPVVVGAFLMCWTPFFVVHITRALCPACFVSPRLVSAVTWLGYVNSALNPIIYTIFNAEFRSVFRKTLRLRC"}, "D(2) dopamine receptor": {"target": "D(2) dopamine receptor (Rattus norvegicus, UniProt P61169)", "sequence (P61169 whole entry)": "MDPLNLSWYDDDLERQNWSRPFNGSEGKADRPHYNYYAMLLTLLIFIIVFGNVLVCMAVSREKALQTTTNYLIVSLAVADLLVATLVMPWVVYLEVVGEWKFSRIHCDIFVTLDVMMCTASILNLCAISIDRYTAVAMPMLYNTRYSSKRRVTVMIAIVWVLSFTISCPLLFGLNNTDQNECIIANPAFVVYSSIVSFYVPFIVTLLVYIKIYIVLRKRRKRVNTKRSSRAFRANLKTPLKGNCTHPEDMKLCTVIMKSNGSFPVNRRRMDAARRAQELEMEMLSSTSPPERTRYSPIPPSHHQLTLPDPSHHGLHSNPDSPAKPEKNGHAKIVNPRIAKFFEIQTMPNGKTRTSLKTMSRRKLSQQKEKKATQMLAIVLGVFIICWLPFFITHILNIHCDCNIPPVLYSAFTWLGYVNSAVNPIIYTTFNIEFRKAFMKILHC"}, "D(1A) dopamine receptor": {"target": "D(1A) dopamine receptor (Rattus norvegicus, UniProt P18901)", "sequence (P18901 whole entry)": "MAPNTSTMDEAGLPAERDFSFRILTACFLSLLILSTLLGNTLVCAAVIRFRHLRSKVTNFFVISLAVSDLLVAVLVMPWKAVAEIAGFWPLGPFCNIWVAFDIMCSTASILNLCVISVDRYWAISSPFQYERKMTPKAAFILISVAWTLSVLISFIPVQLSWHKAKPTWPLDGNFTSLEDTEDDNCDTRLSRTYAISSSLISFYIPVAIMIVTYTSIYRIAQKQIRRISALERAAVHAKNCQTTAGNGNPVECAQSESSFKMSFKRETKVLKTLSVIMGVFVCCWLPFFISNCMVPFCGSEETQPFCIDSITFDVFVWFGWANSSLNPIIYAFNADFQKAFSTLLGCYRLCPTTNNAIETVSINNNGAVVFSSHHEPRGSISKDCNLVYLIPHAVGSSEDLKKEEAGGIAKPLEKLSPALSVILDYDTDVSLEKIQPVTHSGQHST"}}, "note": "Values joined by “and” are separate entries in the source; they are usually repeats but may differ in a detail not shown here. Equal entries are not always repeated. Structures can show the parent of a compound that is named as a salt.", "data": [{"smiles": "Cc1ccc2c3c1CNC[C@H]3c1ccc(O)c(O)c1C2", "note": "(racemic) [Dinapsoline,(+/-)-4-Methyl]", "values": [{"measurement": "Ki", "setting": "D(3) dopamine receptor", "value": 18, "unit": "nM"}, {"measurement": "Ki", "setting": "D(4) dopamine receptor", "value": 83, "unit": "nM"}, {"measurement": "Ki", "setting": "D(2) dopamine receptor", "value": "36 nM and 19 nM"}]}, {"smiles": "CCCN1Cc2ccccc2[C@H]2c3cc(O)c(O)cc3CC[C@@H]21", "note": "[Dihydrexidine, N-propyl]", "values": [{"measurement": "Ki", "setting": "D(3) dopamine receptor", "value": 8.7, "unit": "nM"}, {"measurement": "Ki", "setting": "D(1A) dopamine receptor", "value": 180, "unit": "nM"}]}, {"smiles": "Cc1ccc2c3c1Cc1c(ccc(O)c1O)[C@@H]3CNC2", "note": "(racemic) [Dinapsoline,(+/-)-6-Methyl]", "values": [{"measurement": "Ki", "setting": "D(3) dopamine receptor", "value": 28, "unit": "nM"}, {"measurement": "Ki", "setting": "D(4) dopamine receptor", "value": 220, "unit": "nM"}, {"measurement": "Ki", "setting": "D(2) dopamine receptor", "value": "190 nM and 57 nM"}]}, {"smiles": "CCCN1Cc2c(C)cccc2[C@H]2c3cc(O)c(O)cc3CC[C@@H]21", "note": "[Dihydrexidine, 4-methyl-N-propyl]", "values": [{"measurement": "Ki", "setting": "D(3) dopamine receptor", "value": 2.08, "unit": "nM"}, {"measurement": "Ki", "setting": "D(1A) dopamine receptor", "value": 23.4, "unit": "nM"}]}, {"smiles": "C=CCN1Cc2cccc3c2[C@@H](C1)c1ccc(O)c(O)c1C3", "note": "(racemic) [Dinapsoline,(+/-)-N-allyl]", "values": [{"measurement": "Ki", "setting": "D(3) dopamine receptor", "value": 14, "unit": "nM"}, {"measurement": "Ki", "setting": "D(4) dopamine receptor", "value": 48, "unit": "nM"}]}, {"smiles": "Oc1ccc2c(c1O)Cc1cccc3c1[C@H]2CNC3", "note": "[Dinapsoline, (R)(+)]", "values": [{"measurement": "Ki", "setting": "D(4) dopamine receptor", "value": 60, "unit": "nM"}]}, {"smiles": "CCCN1Cc2c(C)ccc3c2[C@@H](C1)c1ccc(O)c(O)c1C3", "note": "(racemic) [Dinapsoline,(+/-)-4-Methyl-N-propyl]", "values": [{"measurement": "Ki", "setting": "D(3) dopamine receptor", "value": 2.5, "unit": "nM"}, {"measurement": "Ki", "setting": "D(4) dopamine receptor", "value": 28, "unit": "nM"}, {"measurement": "Ki", "setting": "D(1A) dopamine receptor", "value": "200 nM and 1400 nM"}, {"measurement": "Ki", "setting": "D(2) dopamine receptor", "value": "23 nM and 21 nM"}]}, {"smiles": "CCCN1Cc2cccc3c2[C@@H](C1)c1ccc(O)c(O)c1C3", "note": "(racemic) [(+/-)-2-propyldinapsoline hydrobromide]", "values": [{"measurement": "Ki", "setting": "D(3) dopamine receptor", "value": 2.8, "unit": "nM"}, {"measurement": "Ki", "setting": "D(4) dopamine receptor", "value": 17, "unit": "nM"}, {"measurement": "Ki", "setting": "D(1A) dopamine receptor", "value": "170 nM and 1200 nM and 660 nM"}, {"measurement": "Ki", "setting": "D(2) dopamine receptor", "value": "39 nM and 60 nM"}]}, {"smiles": "C=CCN1Cc2c(C)ccc3c2[C@@H](C1)c1ccc(O)c(O)c1C3", "note": "(racemic) [Dinapsoline,(+/-)-4-Methyl-N-allyl]", "values": [{"measurement": "Ki", "setting": "D(3) dopamine receptor", "value": 4.3, "unit": "nM"}, {"measurement": "Ki", "setting": "D(4) dopamine receptor", "value": 63, "unit": "nM"}, {"measurement": "Ki", "setting": "D(1A) dopamine receptor", "value": "56 nM and 140 nM"}, {"measurement": "Ki", "setting": "D(2) dopamine receptor", "value": "36 nM and 49 nM"}]}, {"smiles": "Cc1cccc2c1CN[C@H]1CCc3cc(O)c(O)cc3[C@H]21", "note": "[Dihydrexidine, 4-methyl]", "values": [{"measurement": "Ki", "setting": "D(3) dopamine receptor", "value": 85, "unit": "nM"}, {"measurement": "Ki", "setting": "D(1A) dopamine receptor", "value": "6.6 nM and 18 nM"}, {"measurement": "Ki", "setting": "D(2) dopamine receptor", "value": 674, "unit": "nM"}]}]}
